From US5929027A, “Physiologically active polypeptide-containing pharmaceutical composition” (priority 1991, dated 1999)

Columns and labels:
[1] = system: calcium and phosphur in blood; assay: Experiment 11: blood calcium and phosphur concentration after sublingual rapidly soluble composition; type: in vivo; settings: Beagle dog, tartaric acid 10 w/v % + S-570 2 w/v %, FIG. 8
From the text: The results are shown in the accompanying FIG. 8.

[2] = Beagle dog, sublingual, tartaric acid 10 w/v % + S-570 2 w/v %, FIG. 8
[3] = in vivo; settings: male, Beagle, dog, serum, 1 mg, Maximum blood concentration of human calcitonin in average (pg/ml), sublingual rapidly soluble composition
Protocol: Each one of the test material was administered by a sublingual route to a male Beagle dog which fasted over-night, and the blood was collected at intervals (after 10, 20, 30, 45 and 60 minutes). After the serum was separated, the calcium concentration in serum was measured with Calcium C kit (manufactured by Wako Junyaku K. K., Japan) (n=3).
In the same manner as in Experiment 8, the test material was administered to the dog, and the blood was collected at intervals. After the serum was separated, the human calcitonin concentration in serum was measured by RIA.

CC[C@H](C)[C@H](NC(=O)[C@H](C)NC(=O)[C@@H](NC(=O)[C@H](CCC(N)=O)NC(=O)[C@@H]1CCCN1C(=O)[C@H](Cc1ccccc1)NC(=O)[C@@H](NC(=O)[C@H](Cc1c[nH]cn1)NC(=O)[C@H](Cc1ccccc1)NC(=O)[C@H](CCCCN)NC(=O)[C@H](CC(N)=O)NC(=O)[C@H](Cc1ccccc1)NC(=O)[C@H](CC(=O)O)NC(=O)[C@H](CCC(N)=O)NC(=O)[C@@H](NC(=O)[C@H](Cc1ccc(O)cc1)NC(=O)[C@@H](NC(=O)CNC(=O)[C@H](CC(C)C)NC(=O)[C@H](CCSC)NC(=O)[C@@H]1CSSC[C@H](N)C(=O)NCC(=O)N[C@@H](CC(N)=O)C(=O)N[C@@H](CC(C)C)C(=O)N[C@@H](CO)C(=O)N[C@@H]([C@@H](C)O)C(=O)N1)[C@@H](C)O)[C@@H](C)O)[C@@H](C)O)[C@@H](C)O)C(=O)NCC(=O)N[C@H](C(=O)NCC(=O)N[C@@H](C)C(=O)N1CCC[C@H]1C(N)=O)C(C)C [human calcitonin]
concentration of calcium in blood [1]: lowered | concentration of phosphur in blood [1]: lowered | blood human calcitonin concentration [2]: increase | Cmax ([3]; S-970 1.0 w/v %, citric acid 2.0 w/v %): 0.086 ng/mL | Cmax ([3]; S-970 2.5 w/v %, citric acid 5.0 w/v %): 0.191 ng/mL | Cmax ([3]; S-970 5.0 w/v %, citric acid 10.0 w/v %): 1.12 ng/mL | Cmax ([3]; S-970 10.0 w/v %, citric acid 20.0 w/v %): 1.65 ng/mL
